We go through three molecules from patent US20250215071A1, “Novel Mcl-1 inhibitor and combination of Mcl-1 and a BH3 mimetic, such as a Bcl-2 inhibitor” (NETRIS PHARMA, priority 2022, published 2025).

For one data set, the system named is HCC70. Nature of the data set: Propidium iodide incorporation (Incucyte Zoom) in HCC70 cells with netrin-1 silencing. Format: cell-based. Particulars: up to 24 hours. The method, then: FIG. 10. Cell death assessment by combining netrin-1 silencing and Navitoclax. To assess cell death, Propidium iodide (PI) incorporation, normalized to cell confluence, was followed in real-time up to 24 hours by Incucyte Zoom technology for scramble (siCTRL), netrin-1 (siNet), scramble (siCTRL) and Navitoclax, netrin-1 (siNet) and Navitoclax.
In addition, breast cancer HCC70 were transfected with scramble (siCTRL) or netrin-1 (siNet) targeting siRNAs. 24 hours after transfection, cells were detached, plated again in 24-well plate and treated with 0.5 µM of the Bcl-2/Bcl-XL/Bcl-w inhibitor Navitoclax (Tse et al, Cancer Res, 2008; Shoemaker et al, Clin Cancer Res, 2008). To assess cell death, propidium iodide (PI) incorporation, normalized to cell confluence, was followed in real-time up to 24 hours by Incucyte Zoom technology.

For data set [1] the following is noted: cited from earlier work.
In the next data set the test system is caspase-9. Briefly: UNC5B-induced caspase-9 activity in HeLa UNC5B cells. Format: cell-based, Human. Particulars: Dox; 18 hours. The method, then: FIG. 5. UNC5B-mediated Mcl-1 degradation induces MOMP and caspase-9 activation. (A): UNC5B over-expression triggers Mitochondrial Outer Membrane Permeabilization (MOMP) in a COMMD2/CRL3 complex-dependent manner. Hela cells were transfected with scramble (siCTRL), COMMD2 (siCOMMD2-1) or RBX1 (siRBX1-1) siRNAs. 24 hours after transfection, cells were treated with Dox and after further 18 hours mitochondrial depolarization quantified by 5′,6,6′-tetrachloro-1,1′,3,3′-tetraethylbenzimi-dazolylcarbocyanine iodide (JC-1) dye staining, using NucleoCounter NC3000 (n=3, **** p<0.0001, ordinary two-way ANOVA with Tukey's multiple comparisons test). Values are given as means±SEM. (B,C,D): Apoptotic cell death induced by UNC5B over-expression requires caspase-9. HeLa UNC5B cells were transfected with scramble (siCTRL) or caspase-9 (siCASP9) siRNAs and 24 hours later treated with the indicated concentrations of Dox. Propidium iodide (PI)-positive cells were assessed in real-time up to 48 hours using Incucyte Zoom instrument (C) (n=[…], Kolmogorov-Smirnov test). DNA fragmentation was assessed by FACS analysis (D) and caspase-3 was measured using caspase-3 fluorometric kit (E), both 18 hours after treatment (n=[…], **** p<0.0001, ordinary two-way ANOVA with Šidák's multiple comparisons test). Values are given as means±SEM. […] HeLa UNC5B cells were treated with Dox and 18 hours later caspase-9 and -8 activities were assessed by fluorometric kit, using specific substrates (n=3, ^nsp>0.05, *p<0.05, Mann-Whitney test, one-tailed). […] 24 hours later, cells were treated with Dox and caspase-9 activity was measured by fluorometric kit (n=3, **** p<0.0001, ordinary two-way ANOVA with Tukey's multiple comparisons test). […] 18 hours after treatment, caspase-9 activity was assessed with the fluorometric kit (n=5, *p<0.05, ** p<0.01, *** p<0.001, **** p<0.0001, ordinary two-way ANOVA with Tukey's multiple comparisons test). […] Cells were then treated with Dox and Mcl-1 protein was evaluated by western blot. […]

The test system of a further data set is UNC5B-induced cell death. Briefly: UNC5B-induced cell death under inhibition of neddylation. The class given is cell-based.

With `CC1(C)CCC(c2ccc(Cl)cc2)=C(CN2CCN(c3ccc(C(=O)NS(=O)(=O)c4ccc(N[C@H](CCN5CCOCC5)CSc5ccccc5)c(S(=O)(=O)C(F)(F)F)c4)cc3)CC2)C1` [Navitoclax], the “cell death induction (PI incorporation)” value was “slight effect on cell death induction” in the data set on HCC70 (0.5 µM alone (siCTRL)); “quickly and strongly triggered apoptosis” in the data set with HCC70 (0.5 µM combined with netrin-1 silencing (siNet)).
Turning to `Cc1c(-c2c(-c3ccc(F)o3)sc3ncnc(O[C@H](Cc4ccccc4OCc4ccnn4CC(F)(F)F)C(=O)O)c23)ccc(OCCN2CCN(C)CC2)c1Cl` [S63845], the tolerability entry in data set [1] (Brennan et al., 2018) is recorded as “overall good tolerability”. For the same molecule, the B-cell population result in data set [1] (during treatment (Brennan et al., 2018)) was “decrease in the B-cell population”.
`NS(=O)(=O)OC[C@@H]1C[C@@H](n2ccc3c(N[C@H]4CCc5ccccc54)ncnc32)C[C@@H]1O` [pevonedistat]: the “UNC5B-induced caspase-9 activation” value in the data set on caspase-9 was “sufficient to prevent UNC5B-induced caspase-9 activation”. In addition, the UNC5B-induced cell death result in the data set on UNC5B-induced cell death is given as “prevented UNC5B-induced cell death”.
